From patent US20130171189A1, “INDUCIBLE AND REPRESSIBLE VACCINIA VIRUSES WITH IMPROVED SAFETY” (priority 2011, published 2013) come the findings set out here.

In this data set the test system is BS-C-1 cells. It counts as cell-based. As to conditions: vRG0-infected cells. The protocol:
EGFP Expression Levels by vRG0 Were not Repressed Even in the Presence of High Concentrations of TCs: To test whether vRG0 was repressible by TCs, BS-C-1 cells were infected with vRG0 in the presence of increasing concentrations of ATC, TET, or DOX. The cytopathic effect observed by brightfield microscopy 2 days post-infection was indistinguishable from the cytopathic effect observed from cells treated with ATC and 10 μg/ml or less of TET or DOX (data not shown).
Since TCs complexed to MgCl2 bind to the TetR repressor with higher affinity than TCs alone (a commonly used strategy when studying induced conformation of the repressor by x-ray crystallography), ATC was incubated with MgCl2 to allow for complex formation.

Where [1] appears, read: 100 μg/ml, 2 days post-infection.

Structures are written as SMILES. Like-named read-outs stand apart in the source and are kept apart here.

Take `[Cl-].[Cl-].[Mg+2]` [MgCl2]: the Cell toxicity entry (100 mM MgCl2 (ATC-MgCl2), 2 days) is listed as “toxicity-associated morphology”.

`CN(C)[C@@H]1C(O)=C(C(N)=O)C(=O)[C@@]2(O)C(O)=C3C(=O)c4c(O)cccc4[C@@](C)(O)[C@H]3C[C@@H]12` [TET, tetracycline]: the Cell toxicity entry under setting [1] is on record as “morphology associated with cell toxicity”.

For `C[C@H]1c2cccc(O)c2C(=O)C2=C(O)[C@]3(O)C(=O)C(C(N)=O)=C(O)[C@@H](N(C)C)[C@@H]3[C@@H](O)[C@@H]21` [DOX, doxycycline], the Cell toxicity result under setting [1] was “morphology associated with cell toxicity”.

In the case of `Cc1c2c(c(O)c3c(O)cccc13)C(=O)[C@]1(O)C(=O)C(C(N)=O)=C(O)[C@@H](N(C)C)[C@@H]1C2` [ATC, anhydrotetracycline], the Cell toxicity result (lower concentrations than TET and DOX) is “did not incur any toxicity”.
